Read-outs that look alike come from different tables or passages of the source.
How the values were obtained:
Mice (NMRI) [1] = assay: Formalin paw test (licking time); type: in vivo; settings: for Formalin paw test licking time (s) at 100 mg/kg: 100 mg/kg p.o., 60 min before test, vehicle-treated mice 81.0±13.8 s; for Effect on licking in the formalin test at 300 mg/kg: 300 mg/kg p.o.; for ED50: Mus musculus, po, doses 10-300 mg/kg, FIG. 1, read-out: ED50 for reduction of licking time in the formalin paw test
Description: The method, which detects analgesic/anti-inflammatory activity, follows that described by Wheeler-Aceto et al (see WHEELER-ACETO, H. & A., C. (1991), “Standardization of the rat paw formalin test for the evaluation of analgesics”, Psychopharmacology, 104, 35-44). Mice (NMRI) were given an intraplantar injection of 5% formalin (25 μl) into the posterior left paw. […] The time spent licking was counted for 15 minutes, beginning 15 minutes after injection of formalin. 10 mice were studied per group. The test was performed blind. ESL and CBZ were tested at the doses of 10, 30, 100 and 300 mg/kg p.o., and OXC and R-Lic were tested at the doses of 100 and 300 mg/kg p.o., administered 60 minutes before the test (i.e. 45 minutes before formalin), and compared with a vehicle control group in each experiment.

[2] = Rotarod test (motor impairment); type: in vivo, mice; settings: male, mouse, in vivo, ip; intraperitoneally, 15 min after administration, 15 r.p.m.
Description: (§1) A normal mouse can maintain its equilibrium for long periods in the rotating rod. Mice were examined for motor toxicity in the rotating rod apparatus (Accelerator Rota-Rod [Jones & Roberts] 7650; Ugo Basile). The motor performance of naive mice (male Charles River, weighing 30 to 35 g) was evaluated 15 min after the administration of the compounds to be tested. Animals were placed on the rotating rod at a speed of 15 r.p.m. In a drug-treated mouse the neurological deficit is indicated by the inability of the animal to maintain equilibrium for 1 min in each of three trials. ESL, CBZ, OXC and R-Lic were dissolved in dimethyl sulfoxide (DMSO) (2 ml/kg) and given intraperitoneally (see ROGAWSKI, M. A., […], S., JONES, S. M., RICE, K. C., […], A. & MONN, J. A. (1991). Anticonvulsant activity of the low-affinity uncompetitive N-methyl-D-aspartate antagonist (+−)-5-aminocarbonyl-10,11-dihydro-5H-dibenzo[a,d]cyclohepten-5,10-imine (ADCI): comparison with the structural analogs dizocilpine (MK-801) and carbamazepine. J Pharmacol Exp Ther, 259, 30-37).

Mice (NMRI) [3] = settings: mouse, in vivo
[4] = system: voltage-gated sodium channel (VGSC); settings: cited from earlier work
[5] = system: naive mice (male Charles River); assay: Rotarod test (motor impairment); type: in vivo; settings: intraperitoneally, 15 min after administration, 15 r.p.m.
Description: as §1

[6] = system: voltage-sensitive sodium channels; assay: [3H]BTX displacement binding to whole brain membranes; settings: FIG. 3; for Degree of interaction with site 2 in voltage-gated sodium channels, relative to oxcarbazepine: [3H]-BTX displacement
Description: Blockade of voltage-sensitive sodium channels was studied by investigating [3H]batrachotoxinin A […] ([3H]BTX) displacement binding to whole brain membranes. Animals were decapitated and their brains quickly removed. Membrane preparation and binding assays were performed essentially as previously described (Shimidzu et al., 1997). Brains (without cerebellum) were homogenised in 10 vol 0.32 M sucrose, 1 mM EDTA, 1 mg/ml bovine serum albumin (BSA), 5 mM HEPES/TRIS pH 7.4 with a Teflon homogeniser (8 strokes at 400 r.p.m). After a 10 min centrifugation at 1,000 g the supernatants were centrifuged for 20 min at 39,000 g and pellets were homogenised with 20 vol or 40 vol Na+-free buffer, respectively for [3H]-batrachotoxinin A 20-alpha-benzoate ([3H]-BTX) binding assays. Na+-free buffer had the following composition (in mM): 130 choline chloride, 0.8 MgSO4, 5.4 KCl, 5.5 D-glucose, 50 HEPES/TRIS, pH 7.4. The homogenate was centrifuged for 20 min at 39,000 g and the resultant pellets were resuspended in Na+-free buffer. Protein concentration in membrane preparations was determined with BioRad Protein Assay (BioRad) using a standard curve of BSA (50-250 μg/ml). In [3H]-BTX binding assay experiments membrane preparations (200 μg protein) were incubated for 1 h at 37° C. with 10 nM (inhibition experiments) or 1-200 nM (saturation experiments) [3H]-BTX in Na+-free buffer containing 2 μM scorpion toxin, 1 μM tetrodotoxin and 1 mg/ml BSA in 96-well EIA/RIA plates (COSTAR). In inhibition experiments the reaction buffer contained also 3-1000 μM of test drugs. Nonspecific binding was determined in the presence of 300 μM veratridine. Nonspecific binding was 26±2% of total binding at 10 nM [3H-BTX]. After incubation the reaction was terminated by vacuum filtration (Brandel 96 harvester) through glassfiber filtermats (Wallac). […] Filtermats were dried, impregnated with MeltiLex A scintillation mixture (Wallac), inserted into plastic sample bags (Wallac) and radioactivity determined in a Microbeta 1224-510 counter (Wallac).

[7] = humans; subject-dependent; cited from earlier work

With `NC(=O)N1c2ccccc2C=Cc2ccccc21` [CBZ, carbamazepine, reference compound] the “Formalin paw test licking time (s) at 100 mg/kg” value (“Formalin paw test licking time” for short) (Mice (NMRI) [1]) was 5.3 s, the “Effect on licking in the formalin test at 300 mg/kg” value (Mice (NMRI) [1]) was “abolished licking” and the ED50 (Mice (NMRI) [1]) was 38.2 mg/kg. For the same compound, the ED50 at 15 min [2] was 29.7 mg/kg, the “Sedation (%) at 300 mg/kg” value (Mice (NMRI) [3]; NMRI) was 100% and the “Sedation observed (mice sedated / mice given)” value (Mice (NMRI) [3]; NMRI) was 10/10.

With `CC(=O)O[C@H]1Cc2ccccc2N(C(N)=O)c2ccccc21` [ESL, S-(−)-10-acetoxy-10,11-dihydro-5H-dibenz/b,f/azepine-5-carboxamide] the “Formalin paw test licking time” value (Mice (NMRI) [1]) was 33.6 s, the “Effect on licking in the formalin test at 300 mg/kg” value (Mice (NMRI) [1]) was “abolished licking” and the ED50 (Mice (NMRI) [1]) was 69.7 mg/kg. For the same compound, the ED50 at 15 min [2] was 139 mg/kg, the “Sedation (%) at 300 mg/kg” value (Mice (NMRI) [3]; NMRI) was 10% and the “Sedation observed (mice sedated / mice given)” value (Mice (NMRI) [3]; NMRI) was 1/10. The “Affinity for the resting state of the channel relative to CBZ” value [4] was “about 3 fold lower”.

For `NC(=O)N1c2ccccc2CC(=O)c2ccccc21` [Oxc, oxcarbazepine, reference compound], the “Formalin paw test licking time” value (Mice (NMRI) [1]) was 1 s, the ED50 at 15 min [2] was 50.2 mg/kg and the “Sedation (%) at 300 mg/kg” value (Mice (NMRI) [3]; NMRI) was 90%.

In the case of `NC(=O)N1c2ccccc2C[C@@H](O)c2ccccc21` [R-Lic, R-licarbazepine], the “Formalin paw test licking time” value (Mice (NMRI) [1]) is reported as 36.7 s, the “Rotarod test ED50 values” [5] is reported as 97.4 mg/kg and the “Sedation (%) at 300 mg/kg” value (Mice (NMRI) [3]) is reported as 20%. For the same compound, the “Ability to displace [3H]-BTX from its binding site in whole brain membranes, compared with oxcarbazepine” value [6] was “reduced ability to displaced”, the “Degree of interaction with site 2 in voltage-gated sodium channels, relative to oxcarbazepine” value [6] was “approximately 2.5 times less” and the “Proportion in which the enantiomer is formed as metabolite of oxcarbazepine” value [7] was ~20%.

For `NC(=O)N1c2ccccc2C[C@H](O)c2ccccc21` [S-Lic, S-licarbazepine], the “Degree of interaction with site 2 in voltage-gated sodium channels, relative to oxcarbazepine” value [6] is listed as “approximately 2.5 times less” and the “Proportion in which the enantiomer is formed as metabolite of oxcarbazepine” value [7] is listed as “approximately 80%”.
